We go through eight molecules from PMC13580833, “Investigation of Thiazolidine‐2,4‐Dione Derivatives as Acetylcholinesterase Inhibitors: Synthesis, In Vitro Biological Activities and In Silico Studies” (ChemistryOpen, 2025).

In one series the target is BChE (Homo sapiens, UniProt P06276). Kind of series: BChE inhibition assay (Ellman's method). It is filed as biochemical. Here is the method:
The ChEs inhibitory activities based on Ellman's method were assessed using previously described methods.[[15b]] Acetylcholinesterase (electric eel, […]) inhibition assays were conducted with ATCI (10 mM) and DTNB (10 mM). The experiment required adding 50 μL of AChE in Tris‐HCl buffer (pH 8.0), 100 μL substrate, and 50 μL of the sample dissolved in DMSO (10 % in Tris‐HCl buffer) to the wells. For BChE inhibition, mixtures contained 30 μL of 10 mM DTNB, 5 μL of BChE, 30 μL of 10 mM BTChCl (10 mM), and 10 μL of samples.
All samples were dissolved in 10 % DMSO, and the experiment was performed in triplicate.

Series [1] is described as follows: Ferric reducing/antioxidant power (FRAP) assay. As to conditions: ferrous ion equivalents per gram of test compound; triplicate. How it is done:
The ferric reducing/antioxidant power (FRAP) assay was performed based on a previous study.[[15a]] […] A standard curve was drawn to analyze different concentrations of ferrous sulfate (0.1–1 mM). The analysis was conducted in triplicates and the value of antioxidant activity results were expressed in mmol ferrous ion equivalents per gram of test compounds (mmol Fe^2+/g).

In a further series the test system is p‐Tau/Tau. Kind of series: Western blot of p‐Tau/Tau in Aβ‐exposed PC12 cells. In kind it is cell-based, Rattus norvegicus. As to conditions: for Decrease of p‐Tau/Tau compared with the Aβ group: Aβ1‐42 100 μM. Here is the method: (§1) PC12 cells were seeded in a 6‐well plate, treated CHT1 at concentrations of 5 and 8 μM for 24 hours, washed with cold PBS, and lysed with lysis buffer for 30 minutes on ice. After centrifugation at 12,000×g for 10 minutes at 4 °C, the lysates were transferred to new tubes. The Bradford assay was utilized to determine the protein concentration.[24] SDS–PAGE was used to separate the denatured proteins, which were subsequently transferred to PVDF membranes. The membranes were blocked with nonfat dry milk in PBS containing 0.1 % Tween‐20 (PBST) and then incubated overnight at 4 °C with primary antibodies against p‐Taul/Tau, HSP70, and β‐actin as a control. Subsequently, the membranes were exposed to a secondary antibody conjugated with horseradish peroxidase (HRP) for 2 hours at room temperature. Using the densitometric scanning technique in the ImageJ program, the density of the protein bands in the relative direction was determined.

Another series has as its system HSP70. Kind of series: Western blot of HSP70 in Aβ‐exposed PC12 cells. In kind it is cell-based, Rattus norvegicus. As to conditions: for Decrease of HSP70 expression compared with the Aβ group: Aβ1‐42 100 μM. How it is done:
as §1

The test system of series [2] is PC12 cells. Description: Growth of PC12 cells in response to treatments (Figure 5). It is filed as cell-based, Rattus norvegicus. The settings on record: CHT1 pretreatment 5 and 8 μM in the presence of Aβ, 24 hours.
Series [3] has as its system PC12 cells. Kind of series: MTT assay, Aβ1‐42‐induced toxicity in PC12 cells. The settings on record: 0.31–20 μM CHT1, 12, 24 and 48 h. In kind it is cell-based, Rattus norvegicus. How it is done: (§2) Rattus norvegicus pheochromocytoma PC12 cells (Pastor Institute, Iran) were cultured in Dulbecco's modified Eagle's medium (DMEM) supplemented with 10 % fetal bovine serum (FBS) and 1 % penicillin/streptomycin (Gibco) at 37 °C with 5 % CO2. PC12 cells were treated with different concentrations of CHT1 for 12, 24, or 48 hours, and promising results were obtained.
(§3) In addition, the Aβ1‐42 peptides were diluted in water and preaggregated at 37 °C for 7 days before use. The cellular AD model was successfully constructed in vitro by incubating PC12 cells with 100 μM aggregated Aβ for 24 hours. DMSO (50 μL) and 0.5 mg/mL MTT (10 μL) stock solution were added to each well for 4 hours of incubation. After 30 minutes, the plates were shaken, and the optical density was measured at 570 nm using an ELISA reader (Biotech). The MTT assay used by Pirali et al.,[23] which underwent slight modifications, yielded promising results.

Series [4] in a line: MTT assay, Aβ1‐42‐induced toxicity in PC12 cells. It is filed as cell-based, Rattus norvegicus. The settings on record: rat; PC12 cells, CHT1 20 μM, after 48 h, MTT; read-out: Viability percentage of that of the control. How it is done:
as §2, §3

The mark [5] stands for this setting: PC12 cells, Aβ1‐42 100 μM alone.
Where [6] appears, read: Western blotting, CHT1 5 and 8 μM.

Chain of BChE (P06276 29-602, species assumed): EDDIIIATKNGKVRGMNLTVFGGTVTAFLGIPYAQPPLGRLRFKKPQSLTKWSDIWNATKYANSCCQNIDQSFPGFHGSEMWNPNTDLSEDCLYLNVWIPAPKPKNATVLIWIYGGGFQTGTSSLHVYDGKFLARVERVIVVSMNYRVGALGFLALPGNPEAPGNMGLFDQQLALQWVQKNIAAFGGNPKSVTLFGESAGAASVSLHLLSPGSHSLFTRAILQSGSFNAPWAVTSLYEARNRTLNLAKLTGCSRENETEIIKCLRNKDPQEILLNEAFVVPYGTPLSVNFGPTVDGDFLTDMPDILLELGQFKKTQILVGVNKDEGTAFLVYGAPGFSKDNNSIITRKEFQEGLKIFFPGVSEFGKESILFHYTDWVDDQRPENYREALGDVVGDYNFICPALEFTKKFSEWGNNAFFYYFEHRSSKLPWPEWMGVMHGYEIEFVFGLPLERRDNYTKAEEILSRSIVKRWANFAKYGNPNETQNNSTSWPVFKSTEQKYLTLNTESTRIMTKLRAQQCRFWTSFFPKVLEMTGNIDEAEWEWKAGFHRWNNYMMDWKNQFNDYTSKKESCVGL

On BChE, `O=C1N=C(O)SC1=Cc1ccc(Cl)cc1` [CHT2, 5‐(4‐Chlorobenzylidene)thiazolidine‐2,4‐dione] had a concentration for half-maximal inhibition (IC50) of 125 nM.

On to `O=C1NC(=O)C(=Cc2cccc3ccccc23)S1` [CHT5, 5‐((Naphthalene‐1‐yl)methylene)thiazolidine‐2,4‐dione], for which, in series [1], the “Antioxidant capacity (FRAP)” value stood at 0.26 mmol Fe^2+/g. Also, the midpoint of inhibition at BChE, the IC50, lay at 141 nM.

As to “amyloid beta 1–42 [Aβ1‐42, reference compound]”, the “p‐Tau/Tau ratio greater than in the control group” value in the series on p‐Tau/Tau (setting [5]) amounted to 4.96 fold. In the series on HSP70 (setting [5]), the “HSP70 level greater than in the control group” value is reported as 3.35 fold.

Regarding `O=C1NC(=O)C(=Cc2ccccc2O)S1` [CHT4, 5‐(2‐Hydroxybenzylidene)thiazolidine‐2,4‐dione], the “Antioxidant capacity (FRAP)” value in series [1] is recorded as 0.45 mmol Fe^2+/g. The molecule further came in with an IC50 on BChE of 102 nM.

As for `COc1ccc(C=C2SC(O)=NC2=O)cc1` [CHT1, 5‐(4‐Methoxybenzylidene)thiazolidine‐2,4‐dione], the “Antioxidant capacity (FRAP)” value in series [1] was 0.78 mmol Fe^2+/g. In the series on PC12 cells [2], the “Density of PC12 cells compared with Aβ (100 μM)” value is on record as “increased the density of PC12 cells”. The molecule also yielded an IC50 against BChE of 69.1 nM. In addition, the “Decrease of p‐Tau/Tau compared with the Aβ group” value in the series with p‐Tau/Tau (PC12 cells, 5 μM) was determined as 2.26 fold; in the series on p‐Tau/Tau (PC12 cells, 8 μM), 2.01 fold. Further, the “p‐Tau expression level” value in the series on p‐Tau/Tau (setting [6]) is recorded as “downregulated”. Further, the “Decrease of HSP70 expression compared with the Aβ group” value in the series on HSP70 (PC12 cells, 5 μM) worked out at 2.1 fold; in the series on HSP70 (PC12 cells, 8 μM), 2.26 fold. In addition, the HSP70 expression level entry with HSP70 (setting [6]) was “downregulated”. Besides, in the series with PC12 cells [3], the “Acute toxicity in PC12 cells” value is “acute toxicity was not observed”. Besides, in the series with PC12 cells [3] (PC12 cells, Aβ1‐42 100 μM), the “Effect of pretreatment on Aβ1‐42‐induced cell death” value is listed as “significant reduction in Aβ1‐42‐induced cell death in a dose‐dependent manner”. Moreover, the viability at 48 h, 20 μM in series [4] was 66.5%.

Take `O=C1O[C@H]([C@@H](O)CO)C(O)=C1O` [ascorbic acid, reference compound]: the “Antioxidant capacity (FRAP)” value in series [1] worked out at 1.15 mmol Fe^2+/g.

Regarding `COc1cc2c(cc1OC)C(=O)C(CC1CCN(Cc3ccccc3)CC1)C2` (centres unmarked) [Donepezil, donepezil, reference compound], the “Decrease of HSP70 expression compared with the Aβ group” value in the series on HSP70 (PC12 cells, donepezil 75 μM (positive control)) is on record as 1.92 fold.

Turning to `O=C1NC(=O)C(=Cc2cccc(O)c2)S1` [CHT3, 5‐(3‐Hydroxybenzylidene)thiazolidine‐2,4‐dione], the “Antioxidant capacity (FRAP)” value in series [1] came to 0.41 mmol Fe^2+/g. The same molecule showed an IC50 against BChE of 81.9 nM.
